Laboratory results reported in US10428076B2, “Soluble guanylate cyclase stimulators” (Merck Sharp & Dohme Corp., priority 2015, dated 2019).

molecular target: human recombinant sGC enzyme (Homo sapiens (Human), UniProt Q02108+Q02153); test: Size Exclusion Chromatography (SEC) competition binding assay using [3H] Ex-77B as the radioligand; conditions: [3H] Ex-77B radioligand, 24 hours at 37° C., 300 μM DETA/NO
Procedure: Binding Assay: The binding potencies of sGC compounds to the human recombinant sGC enzyme were determined in a Size Exclusion Chromatography (SEC) competition binding assay using [^3H] Ex-77B as the radioligand. [^3H] […] The parent (non-labeled) molecule was first iodinated then a Pd-catalyzed iodine to tritium exchange provided the labeled compound. […] Assays were conducted in 96-well plates in a total volume of 200 μL. […] Non-specific binding was defined by competition with 1 μM of Ex-77B. After the incubation period, the binding mixtures were loaded onto the gel-filtration plate (ThermoFischer Cat. No. 89808) pre-equilibrated with binding buffer and spun at 1000×g for 3 min at 4° C. on a Bench top centrifuge. The collected eluates in White Frame Clear Well Isoplates (Perkin Elmer Cat #6005040) received 100 μl of UltimaGold scintillation cocktail. The sealed plates were shaken vigorously and span, and counted after 6 hours with a Wallac Microbeta TriLux 1450 LSC & Luminescence Counter (Perkin Elmer).

| Ki [µM] | SMILES |
| --- | --- |
| 0.0122 | CC(C)(Cc1csc(C2(C3CC3)C(=O)Nc3nc(-c4nn(CCCC(F)(F)F)c5ncc(F)cc45)nc(N)c32)n1)C(=O)O (stereo not drawn) [Example 96B, 3-(2-{4-amino-5-cyclopropyl-2-[5-fluoro-1-(4,4,4-trifluorobutyl)-1H-pyrazolo[3,4-b]pyridin-3-yl]-6-oxo-6,7-dihydro-5H-pyrrolo[2,3-d]pyrimidin-5-yl}thiazol-4-yl)-2,2-dimethylpropanoic acid] |

molecular target: sGC α1/β1 heterodimer stably expressed in CHO-K1 cells (CHO-K1/sGC) (Homo sapiens (Human), UniProt Q02108+Q02153); test: Cell-based sGC functional assay (Cyclic GMP Assay for sGC Activator: CASA assay); conditions: CHO-K1, activity expressed as a percentage of compound A (standard), read-out: % Activation
Text: Cell-based sGC Functional Assay (Cyclic GMP Assay for sGC Activator: CASA Assay)
Soluble guanylate cyclase (sGC) is a heme-containing enzyme that converts GTP to secondary messenger cGMP. Increases in cGMP levels affect several physiological processes including vasorelaxation through multiple downstream pathways. […] Heme-dependent activators (HDAs) preferentially activate sGC containing a ferrous heme group. To determine the effect of sGC activators on enzyme activity, the CASA assay was developed to monitor the generation of cGMP in a cell line that stably expresses the heterodimeric sGC protein.
Methods: A CHO-K1 cell line stably expressing the sGC α1/β1 heterodimer was generated using a standard transfection protocol. CHO-K1 cells were transfected with plasmids pIREShyghsGCα1 and pIRESneo-hsGCβ1 simultaneously using FUGENE reagent. Clones that stably express both subunits were selected with hygromycin and neomycin for ˜2 weeks. Clone #7 was chosen for the assay and was designated CHO-K1/sGC. CHO-K1/sGC cells were maintained in F-K12 medium containing 10% heat-inactivated Fetal Bovine Serum (FBS), 100 μg/mL penicillin/streptomycin, 0.5 mg/mL hygromycin and 0.25 mg/mL G418. The cells were then cryopreserved in LN2. On the day of the assay, the cells were thawed and resuspended in EBSS Assay Buffer (Sigma, E3024) supplemented with 5 mM MgCl2, 10 mM HEPES (4-(2-hydroxyethyl)piperazine-1-ethanesulfonic acid) and 0.05% BSA (bovine serum albumin) (EAB) and cell density was then adjusted to 2.25×10^5/mL with EAB. IBMX (3-isobutyl-1-methylxanthin, 0.5 mM) was added to inhibit degradation of cGMP. Compounds were diluted from DMSO stock solutions and added to the assay at a final DMSO concentration of 2.5%. Cells were pre-incubated in the presence and absence of 1 μM of Diethylenetriamine/nitric oxide adduct (DETA-NO; Sigma, 17018) for 30 min at 25° C. Compounds are subsequently added and incubated for 1 hr at 37° C. At the end of the incubation period, the reaction was terminated and the cells were lysed with the detection reagents from Cisbio Kits. The level of intracellular cGMP was determined using an HTRF-based assay kit (CisBio, 62GM2PEC), which detects the displacement of a fluorescence labeled cGMP from its specific antibody. The cGMP produced by test compounds was directly compared to the maximum cGMP production (this value was set to equal 100% activation.) of the published sGC-HDA compound A:
[drawing 491] (Example 1 in WO 2010/065275, published Jun. 10, 2010). The test compounds' activity were then expressed as a percentage of compound A, the standard in every experiment. This percent activation was calculated either in the presence or absence of DETA-NO which was then plotted. Inflection points (IP) and maximum fold induction was derived using Abase analysis software for 4P fit.

| SMILES | Emax [%] |
| --- | --- |
| CC(C)(Cc1csc(C2(C3CC3)C(=O)Nc3nc(-c4nn(CCCC(F)(F)F)c5ncc(F)cc45)nc(N)c32)n1)C(=O)O (stereo not drawn) [Example 96B, 3-(2-{4-amino-5-cyclopropyl-2-[5-fluoro-1-(4,4,4-trifluorobutyl)-1H-pyrazolo[3,4-b]pyridin-3-yl]-6-oxo-6,7-dihydro-5H-pyrrolo[2,3-d]pyrimidin-5-yl}thiazol-4-yl)-2,2-dimethylpropanoic acid] | 54 |
| CC1(c2ccc(CCc3nn[nH]n3)cn2)C(=O)Nc2nc(-c3nn(Cc4ccccc4F)c4ccccc34)nc(N)c21 (single isomer, unassigned) [Example 246A, 5-{5-[2-(2H-tetrazol-5-yl)ethyl]pyridin-2-yl}-4-amino-2-[1-(2-fluorobenzyl)-1H-indazol-3-yl]-5-methyl-5,7-dihydro-6H-pyrrolo[2,3-d]pyrimidin-6-one] | 95.3 |
| CC1CCC(Cn2nc(-c3nc(N)c4c(n3)NC(=O)C4(C)c3nc(CC(C)(C)C(=O)O)co3)c3ccc(F)cc32)CC1 (racemic) [Example 137AA, 3-{2-[4-amino-2-{6-fluoro-1-[4-methylcyclohexylmethyl]-1H-indazol-3-yl}-5-methyl-6-oxo-6,7-dihydro-5H-pyrrolo[2,3-d]pyrimidin-5-yl]-1,3-oxazol-4-yl}-2,2-dimethylpropanoic acid] | 92.1 |
| CC1(c2cn(C(C)(C)C(=O)O)nn2)C(=O)Nc2nc(-c3nn(Cc4ccccc4F)c4cc(Cl)ccc34)nc(N)c21 (single isomer, unassigned) [Example 141A, 2-(4-{4-Amino-2-[6-chloro-1-(2-fluorobenzyl)-1H-indazol-3-yl]-5-methyl-6-oxo-6,7-dihydro-5H-pyrrolo[2,3-d]pyrimidin-5-yl}-1H-1,2,3-triazol-1-yl)-2-methylpropanoic acid] | 98.7 |
| CC1(c2nn(C(C)(C)C(=O)O)c(=O)o2)C(=O)Nc2nc(-c3nn(CCC(F)(F)C(F)(F)F)c4cc(Cl)ccc34)nc(N)c21 (single isomer, unassigned) [Example 99B, 2-[5-{4-Amino-2-[6-chloro-1-(3,3,4,4,4-pentafluorobutyl)-1H-indazol-3-yl]-5-methyl-6-oxo-6,7-dihydro-5H-pyrrolo[2,3-d]pyrimidin-5-yl}-2-oxo-1,3,4-oxadiazol-3(2H)-yl]-2-methylpropanoic acid] | 110 |
| CC(C)(Cc1coc(C2(C)C(=O)Nc3nc(-c4nn(CC5CCCCO5)c5ccccc45)nc(N)c32)n1)C(=O)O (single isomer, unassigned) [Example 230AA, 3-{2-[4-amino-5-methyl-6-oxo-2-{1-[tetrahydro-2H-pyran-2-ylmethyl]-1H-indazol-3-yl}-6,7-dihydro-5H-pyrrolo[2,3-d]pyrimidin-5-yl]-1,3-oxazol-4-yl}-2,2-dimethylpropanoic acid] | 99.1 |
| CC1(c2ccc(CCc3nn[nH]n3)cn2)C(=O)Nc2nc(-c3nn(Cc4ccccc4F)c4cc(Cl)ccc34)nc(N)c21 (single isomer, unassigned) [Example 247A, 5-{5-[2-(2H-tetrazol-5-yl)ethyl]pyridin-2-yl}-4-amino-2-[6-chloro-1-(2-fluorobenzyl)-1H-indazol-3-yl]-5-methyl-5,7-dihydro-6H-pyrrolo[2,3-d]pyrimidin-6-one] | 86.9 |
| CC(C)(Cn1cc(C2(C)C(=O)Nc3nc(-c4nn(Cc5ccccc5F)c5cc(Cl)ccc45)nc(N)c32)nn1)C(=O)O (single isomer, unassigned) [Example 140A, 3-(4-{4-Amino-2-[6-chloro-1-(2-fluorobenzyl)-1H-indazol-3-yl]-5-methyl-6-oxo-6,7-dihydro-5H-pyrrolo[2,3-d]pyrimidin-5-yl}-1H-1,2,3-triazol-1-yl)-2,2-dimethylpropanoic acid] | 99 |

More lines, now with the values ahead:

| Emax [%] | SMILES |
| --- | --- |
| 96.7 | CC1(c2cccc(-c3nn[nH]n3)n2)C(=O)Nc2nc(-c3nn(Cc4ccccc4F)c4cc(Cl)ccc34)nc(N)c21 (single isomer, unassigned) [Example 253A, 5-[6-(2H-tetrazol-5-yl)pyridin-2-yl]-4-amino-2-[6-chloro-1-(2-fluorobenzyl)-1H-indazol-3-yl]-5-methyl-5,7-dihydro-6H-pyrrolo[2,3-d]pynmidin-6-one] |
| 113 | CC1(N2CCC(CCC(=O)O)C2)C(=O)Nc2nc(-c3nn(Cc4ccccc4F)c4cc(Cl)ccc34)nc(N)c21 (single isomer, unassigned) [Example 261C, 3-[1-{4-Amino-2-[6-chloro-1-(2-fluorobenzyl)-1H-indazol-3-yl]-5-methyl-6-oxo-6,7-dihydro-5H-pyrrolo[2,3-d]pyrimidin-5-yl}pyrrolidin-3-yl]propanoic acid] |
| 98.2 | CC1(c2ccc(CCS(=O)(=O)O)cc2)C(=O)Nc2nc(-c3nn(Cc4ccccc4F)c4cc(Cl)ccc34)nc(N)c21 (single isomer, unassigned) [Example 258B, 2-(4-{4-Amino-2-[6-chloro-1-(2-fluorobenzyl)-1H-indazol-3-yl]-5-methyl-6-oxo-6,7-dihydro-5H-pyrrolo[2,3-d]pyrimidin-5-yl}phenyl)ethanesulfonic acid] |
| 87.6 | CC1(c2cccc(-c3nn[nH]n3)c2)C(=O)Nc2nc(-c3nn(CCC(F)(F)C(F)(F)F)c4ncccc34)nc(N)c21 (single isomer, unassigned) [Example 252B, 4-amino-5-methyl-2-[1-(3,3,4,4,4-pentafluorobutyl)-1H-pyrazolo[3,4-b]pyridin-3-yl]-5-[3-(2H-tetrazol-5-yl)phenyl]-5,7-dihydro-6H-pyrrolo[2,3-d]pyrimidin-6-one] |

same assay, conditions: activity expressed as a percentage of compound A (standard)

| SMILES | % Activation [%] |
| --- | --- |
| C[C@@]1(c2ccc(CCc3noc(=O)[nH]3)cc2)C(=O)Nc2nc(-c3nn(Cc4ccccc4F)c4cc(Cl)ccc34)nc(N)c21 [Example 256B, (S)-4-Amino-2-[6-chloro-1-(2-fluorobenzyl)-1H-indazol-3-yl]-5-methyl-5-{4-[2-(5-oxo-4,5-dihydro-1,2,4-oxadiazol-3-yl)ethyl]phenyl}-5,7-dihydro-6H-pyrrolo[2,3-d]pyrimidin-6-one] | 104.4 |

same assay, conditions: inflection point (IP) from 4P fit of percent activation

| EC50 [µM] | SMILES |
| --- | --- |
| 0.311 | CC(C)(Cc1csc(C2(C3CC3)C(=O)Nc3nc(-c4nn(CCCC(F)(F)F)c5ncc(F)cc45)nc(N)c32)n1)C(=O)O (stereo not drawn) [Example 96B, 3-(2-{4-amino-5-cyclopropyl-2-[5-fluoro-1-(4,4,4-trifluorobutyl)-1H-pyrazolo[3,4-b]pyridin-3-yl]-6-oxo-6,7-dihydro-5H-pyrrolo[2,3-d]pyrimidin-5-yl}thiazol-4-yl)-2,2-dimethylpropanoic acid] |
